Assays:
[1] = test system: HEK293 cells overexpressing A53T a-syn; assay: Cytotoxicity screen of lentiviral 7-mer peptide library, Alpha syn A53T cells under MG132; format: cell-based, human
Description: (§1) A screening system to discover candidate peptides to perturb endogenous PPIs based on libraries of short linear interaction motifs that mediate a large fraction (˜30%) of human PPIs (10-12) was recently developed. Here, a lentiviral library of 50,549 7-mer peptide motifs (13) on a green fluorescent protein (GFP) scaffold (FIG. 1A) was used. Cells in a pooled format were infected and the amino acid sequence of each peptide served as its own barcode. By using a low multiplicity of infection followed by puromycin selection, each infected cell expressed one unique GFP-peptide. Peptides that reduced a-syn-mediated cytotoxicity or a-syn oligomers in parallel (FIG. 1A), were screened for.
(§2) To cause cytotoxicity relevant to PD, proteostatic stress in HEK293 cells was induced by inhibiting the proteasome with MG132 and inducing the overexpression of human a-syn (WT) from idiopathic PD in one screen and the more toxic A53T mutant from familial PD in a second screen. The combination of a-syn overexpression and pharmacological proteasome inhibition led to death of most cells, with only those that expressed a protective peptide surviving. By extracting genomic DNA from the surviving cells and amplifying the peptide coding sequences, the protective peptides (FIG. 1A) were identified.
(§3) PCR primers that included the Illumina adaptor sequences were used to amplify peptide coding sequences recovered from selection and cell sorting. Results were demultiplexed, and peptide counts were tallied. After demultiplexing, only reads with an average quality Phred score of >30 were selected, and frequencies were calculated. Finally, the reads were then normalized to the total number of peptides read for that sample population, and a scalar factor was applied. In parallel, ˜25 individual colonies were Sanger sequenced to compare to the NGS data.
(§4) Lentiviruses were made in a 15 cm dish format by transfecting packaging cells (293T) with a three-plasmid system as previously described. Viral transduction of HEK293T cells, tet-off split luciferase a-syn cells, tet-off parent cells, and SH-SY5Y cells were performed with a multiplicity of infection of 0.3 (MOI=0.3). Infected cells were selected in puromycin-containing medium to eliminate uninfected cells and three aliquots of cells were collected for sampling of the initial (TO) cell population. Cells were treated with MG132 at concentrations of 0 μM, 10 μM, 25 μM or 50 μM. For the cell viability screen, surviving cells were collected and gDNA was extracted for identification of peptide inhibitors of cell toxicity. For the inhibition of a-syn aggregation screen, split YFP-a-syn constructs were transfected following stable expression of the peptides. Cells were sorted based on their GFP fluorescence intensities with a FACSVantage SE cell sorter (BD Bioscience).
(§5) Genomic DNA (gDNA) from peptide expressing cells at different time-points was extracted using QIAamp DNA Blood Mini Kit. PCR amplifications of peptides from gDNA in parallel with the lentiviral plasmid library (naïve library) were performed using indexed Illumina PCR primers to incorporate both the Illumina adapter sequences and indexing sequences. Each 50 μl reaction contained 3.2 μg of template, 2×PCR buffer, 2× enhancer solution, 300 μM each dNTP, 900 nM each of Adapter A (5′-[…]-[…]-3′) (SEQ ID NO: 42) and Adapter B (5′-[…]-[…]-3′) (SEQ ID NO: 43), 1 mM MgSO4, 3.75 units of Platinum Pfx polymerase, and water to 50 μl. The PCR reaction was performed by denaturing at 94° C. for 5 minutes, followed by cycling (94° C. for 30 seconds, 65° C. for 30 seconds, 68° C. for 30 seconds)×28 cycles, 68° C. for 5 minutes, then cooling to 4° C. The resulting 244 bp product was purified by electrophoresis in 2% agarose followed by gel extraction. Peptide libraries were quantified using Quant-It assay (Invitrogen) and pooled. […]

[2] = test system: HEK293 cells overexpressing human a-syn (WT); assay: Cytotoxicity screen of lentiviral 7-mer peptide library, Alpha Syn (WT) cells under MG132; format: cell-based
Description: as §1, §2, §3, §4, §5

[3] = normalized Illumina peptide counts, 0 uM MG132
[4] = normalized Illumina peptide counts, 10 µM MG132
[5] = normalized Illumina peptide counts, 25 µM MG132
[6] = normalized Illumina peptide counts, 50 µM MG132

IPIQLKA [PDpep1, top hit of all screens; maps to CHMP2B residues 203-209]
Slope Norm Reads [1]: 40.54 | Reads 0 uM MG132 [1, 3]: 168 | Reads 10 UM MG132 [1, 4]: 20 | Reads 25 UM MG132 [1, 5]: 3859 | Reads 50 UM MG132 [1, 6]: 13308 | Slope Norm Reads [2]: 3.45 | Reads 0 uM MG132 [2, 3]: 90 | Reads 10 UM MG132 [2, 4]: 1 | Reads 25 UM MG132 [2, 5]: 1629 | Reads 50 UM MG132 [2, 6]: 3375

Reference: patent US20250051391A1, “PEPTIDE INHIBITORS AND METHODS FOR INHIBITING PROTEIN AGGREGATION IN NEURONS AND NEURODEGENERATIVE DISEASES” (THE GOVERNING COUNCIL OF THE UNIVERSITY OF TORONTO, priority 2021, published 2025)
